Counter-ions that a name gives are not always drawn.
Molecular target: Factor Xa (Homo sapiens, UniProt P00742)
Assay: Enzyme assay with purified enzyme and peptide-p-nitroanilide substrate (IC50, apparent Ki)
Format: biochemical
Conditions: library product after deprotection with 20% TFA; read-out: IC50 against Factor Xa
Description: All enzyme assays are carried out at room temperature in 96-well microtiter plates using a final enzyme concentration of 1 nM. The concentrations of factor Xa and thrombin are determined by active site titration and the concentrations of all other enzymes are based on the protein concentration supplied by the manufacturer. Compounds according to the invention are dissolved in DMSO, diluted with their respective buffers and assayed at a maximal final DMSO concentration of 1.25%. Compound dilutions are added to wells containing buffer and enzyme and pre-equilibrated for […]. The enzyme reactions are initiated by the addition of substrate and the color developed from the hydrolysis of the peptide-p-nitroanilide substrates is monitored continuously for 5 minutes at 405 nm on a Vmax microplate reader (Molecular Devices). Under these conditions, less than 10% of the substrate is utilized in all assays. […] The apparent Ki values are then determined according to the Cheng-Prusoff equation (IC50=Ki [1+[S]/Km]) assuming competitive inhibition kinetics.

Factor Xa, sequence (P00742 235-488 limits assumed): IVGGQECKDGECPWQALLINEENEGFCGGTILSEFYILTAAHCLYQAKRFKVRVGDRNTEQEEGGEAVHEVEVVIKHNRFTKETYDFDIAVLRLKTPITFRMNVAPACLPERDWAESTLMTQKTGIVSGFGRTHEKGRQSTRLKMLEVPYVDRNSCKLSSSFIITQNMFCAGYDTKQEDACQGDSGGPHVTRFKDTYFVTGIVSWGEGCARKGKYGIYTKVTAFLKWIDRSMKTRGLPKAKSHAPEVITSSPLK
Factor Xa, sequence (P00742 41-179 partner limits assumed): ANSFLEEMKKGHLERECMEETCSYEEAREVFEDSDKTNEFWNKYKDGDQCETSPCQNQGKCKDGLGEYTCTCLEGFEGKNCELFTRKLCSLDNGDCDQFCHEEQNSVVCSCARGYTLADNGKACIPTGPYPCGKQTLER

IC50: < 500 nM
SMILES: O=C1[C@@H](NS(=O)(=O)c2cc3ccc(Cl)cc3s2)CCN1Cc1cc2ncccc2[nH]1 [Example 46, 6-Chloro-benzo[b]thiophene-2-sulfonic Acid [2-oxo-1-(1H-Pyrrolo[3,2-b]pyridin-2-ylmethyl)-pyrrolidin-3-(S)-yl]-amide Trifluoroacetate]

Source: patent US6602864B1, “Sulfonic acid or sulfonylamino N-(heteroaralkyl)-azaheterocyclylamide compounds” (Aventis Pharma Deutschland GmbH, priority 1996, dated 2003)
